Type in all cases: cell-based
One assay deals with A431 (EGFR-WT). The assay is described as follows: Proliferation experiment, A431 cell line (CellTiter-Glo). The following applies: Homo sapiens, A-431; A431 cells, cultured for 72 hrs with compound, CTG analysis. A general note: In ATP-based viability assays light output follows the ATP content of the culture.
Assay [1] deals with Ba/F3 EGFR-V769_D770insASV (Homo sapiens, UniProt P00533, DUP767-769, cells depend on it). The assay is described as follows: Proliferation experiment of Ba/F3 cell line, EGFR-V769_D770insASV (CellTiter-Glo). The following applies: cultured for 72 hrs with compound, CTG analysis, read-out: Ba/F3 EGFR-V769_D770insASV IC50. The procedure, abridged: (§1)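 […] Ba/F3 cells expressing EGFR insertion mutants treated 72 h at 37 °C with 9 concentrations, 3.16-fold dilutions, top 10 μM, 0.1% DMSO, in triplicate. Viability by CellTiter-Glo luminescence with T0 reference plate; IC50 (nM) from non-linear dose-response fit.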

For assay [2], the target named is Ba/F3 EGFR-D770-N771ins_SVD (Homo sapiens, UniProt P00533, DUP768-770, cells depend on it). The assay is described as follows: Proliferation experiment of Ba/F3 cell line, EGFR-D770-N771ins_SVD (CellTiter-Glo). The following applies: cultured for 72 hrs with compound, CTG analysis, read-out: Ba/F3 EGFR-D770-N771ins_SVD IC50. The procedure, abridged: as §1
Sequence of Ba/F3 EGFR-D770-N771ins_SVD (P00533 with tags, fused parts or gaps DUP768-770): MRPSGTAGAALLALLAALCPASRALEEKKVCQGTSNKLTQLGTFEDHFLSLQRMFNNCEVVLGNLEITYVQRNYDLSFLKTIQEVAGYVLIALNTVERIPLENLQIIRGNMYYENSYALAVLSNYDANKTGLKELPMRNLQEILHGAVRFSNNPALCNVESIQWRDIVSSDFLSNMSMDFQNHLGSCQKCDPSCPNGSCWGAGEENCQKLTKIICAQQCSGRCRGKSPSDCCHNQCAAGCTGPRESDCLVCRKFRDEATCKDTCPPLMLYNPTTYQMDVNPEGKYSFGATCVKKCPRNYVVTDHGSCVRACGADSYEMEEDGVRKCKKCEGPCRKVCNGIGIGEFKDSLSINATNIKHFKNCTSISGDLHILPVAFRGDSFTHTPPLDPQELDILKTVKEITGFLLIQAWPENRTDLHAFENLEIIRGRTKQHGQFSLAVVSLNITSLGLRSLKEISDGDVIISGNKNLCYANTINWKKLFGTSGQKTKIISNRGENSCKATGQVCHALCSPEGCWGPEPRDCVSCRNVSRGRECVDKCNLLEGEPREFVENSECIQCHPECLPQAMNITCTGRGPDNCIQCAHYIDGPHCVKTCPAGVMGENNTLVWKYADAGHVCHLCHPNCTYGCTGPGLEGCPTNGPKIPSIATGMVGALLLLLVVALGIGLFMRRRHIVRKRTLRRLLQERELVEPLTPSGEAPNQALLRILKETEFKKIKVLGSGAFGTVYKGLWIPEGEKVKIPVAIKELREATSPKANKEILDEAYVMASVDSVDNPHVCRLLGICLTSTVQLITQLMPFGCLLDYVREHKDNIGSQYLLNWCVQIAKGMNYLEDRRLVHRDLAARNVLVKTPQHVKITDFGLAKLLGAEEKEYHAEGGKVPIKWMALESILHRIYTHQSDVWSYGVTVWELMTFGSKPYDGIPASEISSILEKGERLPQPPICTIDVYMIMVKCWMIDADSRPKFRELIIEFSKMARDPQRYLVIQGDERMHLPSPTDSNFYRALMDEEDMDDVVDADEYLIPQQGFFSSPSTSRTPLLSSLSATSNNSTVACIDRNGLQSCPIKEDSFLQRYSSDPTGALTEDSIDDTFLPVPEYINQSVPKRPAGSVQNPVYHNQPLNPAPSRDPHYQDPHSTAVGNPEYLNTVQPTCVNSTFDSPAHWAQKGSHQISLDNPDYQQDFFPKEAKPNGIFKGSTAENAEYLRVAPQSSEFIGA

Sequence of Ba/F3 EGFR-V769_D770insASV (P00533 with tags, fused parts or gaps DUP767-769): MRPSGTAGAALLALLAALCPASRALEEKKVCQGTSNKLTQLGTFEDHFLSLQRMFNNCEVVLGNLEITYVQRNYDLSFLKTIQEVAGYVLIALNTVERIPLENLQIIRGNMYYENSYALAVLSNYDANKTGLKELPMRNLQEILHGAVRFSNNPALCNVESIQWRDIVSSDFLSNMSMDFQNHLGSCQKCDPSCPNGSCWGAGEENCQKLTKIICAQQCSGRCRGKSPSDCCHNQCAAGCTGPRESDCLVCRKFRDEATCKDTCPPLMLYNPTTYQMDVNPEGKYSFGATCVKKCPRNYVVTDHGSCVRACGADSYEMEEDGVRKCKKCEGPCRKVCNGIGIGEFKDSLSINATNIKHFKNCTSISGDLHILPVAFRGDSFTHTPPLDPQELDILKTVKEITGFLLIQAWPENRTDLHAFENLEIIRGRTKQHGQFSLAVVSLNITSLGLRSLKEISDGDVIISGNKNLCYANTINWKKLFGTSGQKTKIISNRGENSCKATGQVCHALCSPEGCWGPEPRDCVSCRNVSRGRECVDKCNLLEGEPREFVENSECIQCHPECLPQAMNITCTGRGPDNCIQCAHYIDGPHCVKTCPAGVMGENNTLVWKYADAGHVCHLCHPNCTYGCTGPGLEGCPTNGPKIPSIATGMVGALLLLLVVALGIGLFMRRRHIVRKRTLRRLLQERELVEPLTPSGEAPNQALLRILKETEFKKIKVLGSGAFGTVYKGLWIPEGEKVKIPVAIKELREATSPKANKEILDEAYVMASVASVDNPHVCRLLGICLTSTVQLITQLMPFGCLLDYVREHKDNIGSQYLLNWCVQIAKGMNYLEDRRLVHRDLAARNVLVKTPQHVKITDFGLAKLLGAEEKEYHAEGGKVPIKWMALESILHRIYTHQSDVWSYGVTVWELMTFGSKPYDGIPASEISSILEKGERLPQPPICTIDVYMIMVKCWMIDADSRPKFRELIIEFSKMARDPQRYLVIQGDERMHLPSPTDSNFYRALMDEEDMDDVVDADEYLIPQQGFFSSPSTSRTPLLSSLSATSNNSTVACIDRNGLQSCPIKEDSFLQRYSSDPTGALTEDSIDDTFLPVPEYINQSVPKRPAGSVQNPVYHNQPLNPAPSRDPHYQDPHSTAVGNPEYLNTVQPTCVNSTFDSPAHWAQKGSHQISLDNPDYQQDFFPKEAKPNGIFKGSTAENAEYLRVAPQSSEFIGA

Usually IC50 stands for the concentration that inhibits the measured activity by half. As for `C=CC(=O)Nc1cc2c(Nc3ccc(F)c(-c4ncccc4F)c3)ncnc2cc1OCCCN1CCN(C)CC1` [Example 43, N-(4-((4-fluoro-3-(3-fluoropyridin-2-yl)phenyl)amino)-7-(3-(4-methylpiperazin-1-yl)propoxy)quinazolin-6-yl)acrylamide], the IC50 in the assay with A431 (EGFR-WT) stood at 284 nM. Further, the GI50 in assay [1] was 49.3 nM; in assay [2], 27.8 nM.

Regarding `C=CC(=O)Nc1cc2c(Nc3cccc(-c4ncccc4F)c3)ncnc2cc1OCCCN1CCN(C)CC1` [Example 44, N-(4-((3-(3-fluoropyridin-2-yl)phenyl)amino)-7-(3-(4-methylpiperazin-1-yl)propoxy)quinazolin-6-yl)acrylamide], in the assay with A431 (EGFR-WT), the IC50 is 83 nM. Also, the GI50 is 29.3 nM in assay [1] and 13.9 nM in assay [2].

Turning to `C=CC(=O)Nc1cc2c(Nc3cccc(-c4ccccc4F)c3)ncnc2cc1OCCCN1CCOCC1` [Example 45, N-(4-((2′-fluoro-[1,1′-biphenyl]-3-yl)amino)-7-(3-morpholinopropoxy)quinazolin-6-yl)acrylamide], the IC50 with A431 (EGFR-WT) is 66 nM. Also, the GI50 in assay [1] came to 27 nM; in assay [2], 17 nM.

Consider `C=CC(=O)Nc1cc2c(Nc3cccc(-c4ccccc4F)c3)ncnc2cc1OCCCN1CCN(C)CC1` [Example 46, N-(4-((2′-fluoro-[1,1′-biphenyl]-3-yl)amino)-7-(3-(4-methylpiperazin-1-yl)propoxy)quinazolin-6-yl)acrylamide], for which the IC50 in the assay with A431 (EGFR-WT) was 120 nM. Moreover, the GI50 in assay [1] came to 15.8 nM; in assay [2], 11.9 nM.

Turning to `C=CC(=O)Nc1cc2c(Nc3ccc(F)c(-c4ccccc4)c3)ncnc2cc1OCCCN1CCOCC1` [Example 47, N-(4-((6-fluoro-[1,1′-biphenyl]-3-yl)amino)-7-(3-morpholinopropoxy)quinazolin-6-yl)acrylamide], in the assay on A431 (EGFR-WT), the IC50 came to 190 nM. Also, the results for the GI50 in assay [1] and in assay [2] were 41.4 nM and 29.5 nM, respectively.

As to `C=CC(=O)Nc1cc2c(Nc3ccc(F)c(-c4ccccc4)c3)ncnc2cc1OCCCN1CCN(C)CC1` [Example 48, N-(4-((6-fluoro-[1,1′-biphenyl]-3-yl)amino)-7-(3-(4-methylpiperazin-1-yl)propoxy)quinazolin-6-yl)acrylamide], the IC50 in the assay on A431 (EGFR-WT) came out at 26 nM. Moreover, the GI50 came to 41.4 nM in assay [1] and 14.5 nM in assay [2].

On to `C=CC(=O)Nc1cc2c(Nc3ccc(F)c(-c4ccccn4)c3)ncnc2cc1OCCCN1CCOCC1` [Example 49, N-(4-((4-fluoro-3-(pyridin-2-yl)phenyl)amino)-7-(3-morpholinopropoxy)quinazolin-6-yl)acrylamide], for which the IC50 with A431 (EGFR-WT) was 377 nM. Also, the values for the GI50 in assay [1] and in assay [2] were 59.1 nM and 28.6 nM, respectively.

Consider `C=CC(=O)Nc1cc2c(Nc3ccc(F)c(-c4ccccn4)c3)ncnc2cc1OCCCN1CCN(C)CC1` [Example 50, N-(4-((4-fluoro-3-(pyridin-2-yl)phenyl)amino)-7-(3-(4-methylpiperazin-1-yl)propoxy)quinazolin-6-yl)acrylamide], for which the IC50 in the assay with A431 (EGFR-WT) amounted to 48 nM. The GI50 in assay [1] came out at 37.9 nM; in assay [2], 23.3 nM.

For the compound `C=CC(=O)Nc1cc2c(Nc3cccc(-n4cccn4)c3)ncnc2cc1OCCCN1CCN(C)CC1` [Example 53, N-(4-((3-(1H-pyrazol-1-yl)phenyl)amino)-7-(3-(4-methylpiperazin-1-yl)propoxy)quinazolin-6-yl)acrylamide], in the assay with A431 (EGFR-WT), the IC50 was 341 nM. The GI50 came out at 22.3 nM in assay [1] and 11.4 nM in assay [2].

As to `C=CC(=O)Nc1cc2c(Nc3cccc(-n4nccn4)c3)ncnc2cc1OCCCN1CCN(C)CC1` [Example 56, N-(4-((3-(2H-1,2,3-triazol-2-yl)phenyl)amino)-7-(3-(4-methylpiperazin-1-yl)propoxy)quinazolin-6-yl)acrylamide], the IC50 in the assay on A431 (EGFR-WT) was determined as 357 nM. The GI50 in assay [1] was 22.6 nM; in assay [2] it was 11.4 nM.

In the case of `C=CC(=O)Nc1cc2c(Nc3cncc(-c4ccccc4F)c3)ncnc2cc1OCCN1CCOCC1` [Example 57, N-(4-((5-(2-fluorophenyl)pyridin-3-yl)amino)-7-(2-morpholinoethoxy)quinazolin-6-yl)acrylamide], the IC50 with A431 (EGFR-WT) is 1070 nM. Moreover, the GI50 in assay [1] is 28.7 nM; in assay [2], 10.8 nM.

For `C=CC(=O)Nc1cc2c(Nc3cncc(-c4ccccc4F)c3)ncnc2cc1OCCCN1CCOCC1` [Example 58, N-(4-((5-(2-fluorophenyl)pyridin-3-yl)amino)-7-(3-morpholinopropoxy)quinazolin-6-yl)acrylamide], the IC50 with A431 (EGFR-WT) was 840 nM. Besides, the GI50 is 13.6 nM in assay [1] and 5.1 nM in assay [2].

For the compound `C=CC(=O)Nc1cc2c(Nc3cncc(-c4ccccc4F)c3)ncnc2cc1OCCCN1CCN(C)CC1` [Example 59, N-(4-((5-(2-fluorophenyl)pyridin-3-yl)amino)-7-(3-(4-methylpiperazin-1-yl)propoxy)quinazolin-6-yl)acrylamide], the IC50 in the assay on A431 (EGFR-WT) turned out to be 226 nM. Also, the GI50 in assay [1] amounted to 11.2 nM; in assay [2], 4.2 nM.

`C=CC(=O)Nc1cc2c(Nc3cncc(-c4c(F)cccc4F)c3)ncnc2cc1OCCCN1CCN(C)CC1` [Example 62, N-(4-((5-(2,6-difluorophenyl)pyridin-3-yl)amino)-7-(3-(4-methylpiperazin-1-yl)propoxy)quinazolin-6-yl)acrylamide]: the IC50 in the assay with A431 (EGFR-WT) was found to be 348 nM. The values for the GI50 in assay [1] and in assay [2] were 23.6 nM and 11 nM, respectively.

For the compound `C=CC(=O)Nc1cc2c(Nc3cncc(-c4ccccc4F)c3)ncnc2cc1O[C@@H]1CCN(C)C1` [Example 63, (R)-N-(4-((5-(2-fluorophenyl)pyridin-3-yl)amino)-7-((1-methylpyrrolidin-3-yl)oxy)quinazolin-6-yl)acrylamide], the IC50 in the assay with A431 (EGFR-WT) came to 972 nM. Besides, the GI50 in assay [1] is 38.1 nM; in assay [2] it was 14.1 nM.

Turning to `C=CC(=O)Nc1cc2c(Nc3cncc(-c4c(F)cccc4F)c3)ncnc2cc1O[C@@H]1CCN(C)C1` [Example 64, (R)-N-(4-((5-(2,6-difluorophenyl)pyridin-3-yl)amino)-7-((1-methylpyrrolidin-3-yl)oxy)quinazolin-6-yl)acrylamide], the IC50 with A431 (EGFR-WT) is 1000 nM. For the same compound, the GI50 in assay [1] is 63.6 nM; in assay [2], 34.5 nM.

`C=CC(=O)Nc1cc2c(Nc3ccnc(-c4ccccc4F)c3)ncnc2cc1O[C@@H]1CCN(C)C1` [Example 65, (R)—N-(4-((2-(2-fluorophenyl)pyridin-4-yl)amino)-7-((1-methylpyrrolidin-3-yl)oxy)quinazolin-6-yl)acrylamide]: in the assay on A431 (EGFR-WT), the IC50 amounted to 289 nM. In addition, the GI50 turned out to be 7.9 nM in assay [1] and 4.1 nM in assay [2].

As for `C=C(F)C(=O)Nc1cc2c(Nc3ccnc(-c4ccccc4F)c3)ncnc2cc1O[C@@H]1CCN(C)C1` [Example 66, (R)-2-fluoro-N-(4-((2-(2-fluorophenyl)pyridin-4-yl)amino)-7-((1-methylpyrrolidin-3-yl)oxy)quinazolin-6-yl)acrylamide], in the assay with A431 (EGFR-WT), the IC50 was determined as 10.2 nM. Further, the GI50 in assay [1] was 6.5 nM; in assay [2], 5.9 nM.

Turning to `CN(C)C/C=C/C(=O)Nc1cc2c(Nc3ccnc(-c4ccccc4F)c3)ncnc2cc1O[C@@H]1CCN(C)C1` [Example 67, (R,E)-4-(dimethylamino)-N-(4-((2-(2-fluorophenyl)pyridin-4-yl)amino)-7-((1-methylpyrrolidin-3-yl)oxy)quinazolin-6-yl)but-2-enamide], the IC50 in the assay with A431 (EGFR-WT) came out at 21.1 nM. In addition, the figures for the GI50 in assay [1] and in assay [2] were 11.5 nM and 9.5 nM, respectively.

On to `C=CC(=O)Nc1cc2c(Nc3ccnc(-c4ccccc4F)c3)ncnc2cc1OCCN1CCOCC1` [Example 68, N-(4-((2-(2-fluorophenyl)pyridin-4-yl)amino)-7-(2-morpholinoethoxy)quinazolin-6-yl)acrylamide], for which the IC50 in the assay on A431 (EGFR-WT) came out at 19.3 nM. Moreover, the GI50 was 2.5 nM in assay [1] and 1.3 nM in assay [2].

Take `C=CC(=O)Nc1cc2c(Nc3ccnc(-c4ccccc4F)c3)ncnc2cc1OCCCN1CCOCC1` [Example 69, N-(4-((2-(2-fluorophenyl)pyridin-4-yl)amino)-7-(3-morpholinopropoxy)quinazolin-6-yl)acrylamide]: the IC50 in the assay with A431 (EGFR-WT) was found to be 38.1 nM. Further, the GI50 came to 5 nM in assay [1] and 3.4 nM in assay [2].

On to `C=CC(=O)Nc1cc2c(Nc3ccnc(-c4ccccc4F)c3)ncnc2cc1OCCCN1CCN(C)CC1` [Example 70, N-(4-((2-(2-fluorophenyl)pyridin-4-yl)amino)-7-(3-(4-methylpiperazin-1-yl)propoxy)quinazolin-6-yl)acrylamide], for which, in the assay with A431 (EGFR-WT), the IC50 worked out at 81 nM. For the same compound, the values for the GI50 in assay [1] and in assay [2] were 5 nM and 3.1 nM, respectively.

With `C=CC(=O)Nc1cc2c(Nc3ccnc(-c4ccccc4F)c3)ncnc2cc1OCCCN1CCN(CC)CC1` [Example 71, N-(7-(3-(4-ethylpiperazin-1-yl)propoxy)-4-((2-(2-fluorophenyl)pyridin-4-yl)amino)quinazolin-6-yl)acrylamide], the IC50 in the assay on A431 (EGFR-WT) is 9.3 nM. The GI50 in assay [1] came to 3.1 nM; in assay [2], 1.9 nM.

Consider `C=CC(=O)Nc1cc2c(Nc3ccnc(-c4c(F)cccc4F)c3)ncnc2cc1OCCCN1CCN(C)CC1` [Example 74, N-(4-((2-(2,6-difluorophenyl)pyridin-4-yl)amino)-7-(3-(4-methylpiperazin-1-yl)propoxy)quinazolin-6-yl)acrylamide], for which, in the assay on A431 (EGFR-WT), the IC50 was determined as 136 nM. In addition, the GI50 in assay [1] was found to be 4.4 nM; in assay [2], 3.5 nM.

For the origin of these results see patent US12649727B2, “EFGR inhibitor, preparation method therefor and application thereof” (Abbisko Therapeutics Co., Ltd, priority 2020, dated 2026).
